The subject of experiment [1] is astrocyte. The experiment is described as follows: western blotting for ac-S565 and total COX2 in primary cells. It counts as cell-based, C57BL/6 mice. The settings on record: Ab 10mM, replicates. The procedure:
To confirm the generation and roles of N-AS in neurons, cells from E18 C57BL/6 mice were prepared as previously described. Cortices were dissected and then dissociated followed by incubation in papain (Worthington) at 37 °C for 15 min. Neurons were plated on poly-L-lysine-coated coverslips with neuronal culture medium, serum-free Neurobasal medium (Gibco) containing 2% B27 supplements (Gibco), 1 mM Glutamax supplement (Gibco), and 100 U ml^−1 streptomycin/ 100 U ml^−1 penicillin (Gibco) at 37 °C in a humidified atmosphere of 5% CO2. Aβ 1–42 (10 μM, 24 h, Invitrogen, 03112) was exposed to neurons and the cells were analyzed for the generation and roles of N-AS. Primary astrocyte cultures were prepared from C57BL/6 mice as described previously. In brief, after removal of the meninges, postnatal day 7 (P7) mouse brain tissues were minced and incubated in a rocking water bath at 37 °C for 30 min in the presence of 0.25% trypsin-EDTA (Sigma-Aldrich). […] The human microglia treated with Aβ 1–42 and/or zileuton was incubated with N-AS (2.5 μM, 2 h, Sigma-Aldrich, 01912), and were analyzed for the generation and roles of N-AS.
Samples were lysed in RIPA buffer (Cell signaling Technologies), then subjected to SDS-PAGE and transferred to a nitrocellulose membrane. […] We performed densitometric quantification using the ImageJ software (National Institutes of Health). […]
In general terms: Immunoblotting shows a protein as a band on a membrane.

The subject of experiment [2] is APP/PS1 mice. The experiment is described as follows: light-dark test (Supplementary Fig 7j-n). In kind it is in vivo, mouse. The settings on record: N-AS vs APP/PS1. The protocol: Transgenic mouse lines over-expressing the hAPP695swe (APP) and presenilin-1M146V (PS1) mutations were originated from GlaxoSmithKline (Harlow, UK)[32] and maintained as described previously. We purchased 5×FAD mice from Jackson Labs (Stock number. 34840-JAX). Because APP/PS1 and 5xFAD mice show sex differences in disease progression, we used only male mice. To examine possible therapeutic effect of N-AS and aspirin in APP/PS1 mice, the N-AS (30 mg kg^−1, Sigma-Aldrich, 01912) was injected daily s.c. for 8 weeks to 7-months-old APP/PS1 mice until the age of 9 months, and aspirin (2 mg kg^−1, Sigma-Aldrich, A5376)[33] was administrated orally to 7-months-old APP/PS1 mice for 8 weeks. […] Block randomization method was used to allocate the animals to experimental groups. To eliminate the bias, we were blinded in experimental progress such as data collection and data analysis. Mice were housed at temperature of 22 °C and a 12 h day/12 h night cycle with free access to tap water and food pellets. All protocols were approved by the Kyungpook National University Institutional Animal Care and Use Committee. […] Freezing was analyzed for 5 min. […] Overall activity in the box was measured, and the amount of time and distance traveled in the center arena was noted. […] The total number of transitions, latency to first enter the light chamber, distance traveled, and time spent in each chamber were recorded.

Results on two compounds are retold here after article PMC7217877, “N-AS-triggered SPMs are direct regulators of microglia in a model of Alzheimer’s disease” (Nature Communications, 2020).

“And” between values parts separate entries of the source, which are not always exact repeats. Equal entries are not always repeated.

Consider “Ab: Aβ 1–42 (Invitrogen, 03112) used to induce an AD environment in cells”, for which, in experiment [1], the “ac-S565 / total COX2, western blotting (Fig 3b)” value is 0.1055 and 0.07523 and 0.08324 and 0.06718 and 0.09034 and 0.07923.

Turning to `CCCCCCCCCCCCC/C=C/[C@@H](O)[C@H](CO)NC(C)=O` [N-AS, N-((2S,3R,E)-1,3-Dihydroxyoctadec-4-en-2-yl)acetamide], the “light–dark test” value in experiment [2] was “did not differ between the groups”.
